PMC8999917, “Structure–Activity Relationship of Synthetic Ginkgolic Acid Analogs for Treating Type 2 Diabetes by PTPN9 Inhibition” (International Journal of Molecular Sciences, 2022)

Target: T1, PPARγ (Homo sapiens, UniProt P37231)
T1 construct: expressed in transfected cells; host or cells: CHO cells
T1 sequence (P37231 1-505): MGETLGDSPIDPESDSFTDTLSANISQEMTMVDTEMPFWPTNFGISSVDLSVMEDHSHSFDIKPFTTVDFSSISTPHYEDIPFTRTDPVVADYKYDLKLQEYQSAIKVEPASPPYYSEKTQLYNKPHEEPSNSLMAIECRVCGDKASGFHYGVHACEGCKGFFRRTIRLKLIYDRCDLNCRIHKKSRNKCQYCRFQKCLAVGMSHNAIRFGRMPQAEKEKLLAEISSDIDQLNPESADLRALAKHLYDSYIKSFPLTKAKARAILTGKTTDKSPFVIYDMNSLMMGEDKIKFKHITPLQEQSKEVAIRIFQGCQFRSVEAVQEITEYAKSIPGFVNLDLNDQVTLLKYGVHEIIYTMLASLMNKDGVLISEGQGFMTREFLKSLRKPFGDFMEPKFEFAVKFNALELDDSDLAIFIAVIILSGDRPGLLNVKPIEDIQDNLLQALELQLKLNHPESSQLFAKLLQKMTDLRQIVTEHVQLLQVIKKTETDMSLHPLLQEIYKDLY
Assay: PPARγ PPRE-Luc reporter gene assay in CHO cells
Assay type: cell-based
Conditions: 50 μM
Source text: Glucose uptake is regulated by three major mechanisms. First, through the activation of the Akt pathway, which promotes GLUT4 translocation via the activation of the signaling cascade involving the insulin receptor substrate (IRS) family and PI3 kinase through […] or G-protein-coupled receptors (GPCRs); second, through the upregulation of AMPK phosphorylation, which increases glucose uptake by inducing GLUT4 translocation to the plasma membrane; third, through the promotion of GLUT4 expression by PPARγ ligands. […] However, these compounds may induce GLUT4 expression and improve insulin sensitivity in the treated cells through their interactions with GPCR and/or PPARγ. Among GPCRs highly expressed in 3T3-L1 adipocytes and C2C12 muscle cells, GPR120 is the receptor that is most closely associated with glucose uptake. […] This was performed following a previously described method. In brief, CHO cells were plated to 96-well white plates (REF3610, Corning Life Sciences, NY, USA) in DMEM (HyClone^TM, Cytivalifescience, Seoul, Korea) supplemented with 10% FBS and 1% penicillin at a density of 1.5 × 10^4 cells/well. […] After incubation for another 24 h, luciferase activity was measured using the dual-luciferase assay system (Promega Korea, Seoul, Korea) according to the manufacturer’s instructions. […]

PPARγ transcriptional activity (PPRE-Luc) | Compound
No significant change | CCCCCCCCCCCCCOc1cccc(O)c1C(=O)O [Compound 1e]
No significant change | CCCCCCCCCCCCCCCOc1cccc(O)c1C(=O)O [Compound 1f]
